Legend:
Format in all cases: cell-based
Conditions in all cases: U-87MG ATCC
[1] = target: Prolyl endopeptidase FAP (Homo sapiens) (UniProt Q12884); test: Inhibition of FAP in human U87MG cells using Suc-Gly-Pro-AMC as substrate at 1 uM incubated for 90 mins by fluorescence based assay relative to control
[2] = target: Prolyl endopeptidase FAP (Homo sapiens) (UniProt Q12884); test: Inhibition of FAP in human U87MG cells using Z-Gly-Pro-AMC as substrate at 1 uM incubated for 90 mins by fluorescence based assay relative to control
[3] = target: Prolyl endopeptidase FAP (Homo sapiens) (UniProt Q12884); test: Inhibition of FAP in human U87MG cells using Gly-Pro-AMC as substrate at 1 uM incubated for 90 mins by fluorescence based assay relative to control

Chain of Prolyl endopeptidase FAP (Homo sapiens) (Q12884 whole entry): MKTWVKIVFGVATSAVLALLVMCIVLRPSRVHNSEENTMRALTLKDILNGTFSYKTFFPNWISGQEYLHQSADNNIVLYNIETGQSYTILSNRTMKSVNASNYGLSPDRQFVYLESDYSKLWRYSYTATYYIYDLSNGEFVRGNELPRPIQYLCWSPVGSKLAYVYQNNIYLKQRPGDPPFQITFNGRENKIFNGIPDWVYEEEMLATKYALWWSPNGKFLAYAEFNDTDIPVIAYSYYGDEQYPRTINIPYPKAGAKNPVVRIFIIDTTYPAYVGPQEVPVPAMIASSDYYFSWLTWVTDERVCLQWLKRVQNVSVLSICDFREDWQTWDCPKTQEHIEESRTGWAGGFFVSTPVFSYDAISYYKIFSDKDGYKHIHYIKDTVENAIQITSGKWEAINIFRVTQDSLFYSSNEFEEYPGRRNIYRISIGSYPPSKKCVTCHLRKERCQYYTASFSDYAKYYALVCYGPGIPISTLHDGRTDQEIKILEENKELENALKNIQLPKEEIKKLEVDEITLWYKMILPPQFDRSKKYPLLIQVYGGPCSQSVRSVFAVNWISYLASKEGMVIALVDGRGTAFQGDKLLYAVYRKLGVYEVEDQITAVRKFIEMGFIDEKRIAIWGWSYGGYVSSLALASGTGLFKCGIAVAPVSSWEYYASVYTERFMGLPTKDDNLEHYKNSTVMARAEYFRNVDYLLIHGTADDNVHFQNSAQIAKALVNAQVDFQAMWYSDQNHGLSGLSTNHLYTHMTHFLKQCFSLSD

inhibition [1]: 91.9%
inhibition [2]: 30.7%
inhibition [3]: 17.5%
SMILES: N#C[C@@H]1CC(F)(F)CN1C(=O)CNC(=O)c1ccnc2ccccc12
